# Test results published in ChEMBL document CHEMBL1123693, “Amnesia-reversal activity of a series of cyclic imides” (1987).
# What was measured:
# Type in all cases: functional
# [1] = system: Mus musculus; experiment: Ability to reverse electroconvulsive shock (ECS) induced amnesia in mice, at a dose of 5 mg/Kg administered perorally
# [2] = system: Mus musculus; experiment: Reversal of electroconvulsive shock induced amnesia in mice following 20 mg/Kg p.o.
# [3] = system: Mus musculus; experiment: Ability to reverse electroconvulsive shock (ECS) induced amnesia in mice, at a dose of 80 mg/Kg administered perorally
# [4] = system: Mus musculus; experiment: Reversal of electroconvulsive shock induced amnesia in mice following 1 mg/Kg p.o.
# [5] = system: Mus musculus; experiment: Reversal of electroconvulsive shock induced amnesia in mice following 100 mg/Kg p.o.
# [6] = system: Mus musculus; experiment: Ability to reverse electroconvulsive shock (ECS) induced amnesia in mice, at a dose of 10 mg/Kg administered perorally
# [7] = system: Mus musculus; experiment: Ability to reverse electroconvulsive shock (ECS) induced amnesia in mice, at a dose of 2.5 mg/Kg administered perorally
# [8] = system: Mus musculus; experiment: Ability to reverse electroconvulsive shock (ECS) induced amnesia in mice, at a dose of 1.25 mg/Kg administered perorally
# [9] = system: Mus musculus; experiment: Ability to reverse electroconvulsive shock (ECS) induced amnesia in mice, at a dose of 1 mg/Kg administered perorally
# [10] = system: Mus musculus; experiment: Ability to reverse electroconvulsive shock (ECS) induced amnesia in mice, at a dose of 10 mg/kg administered perorally; conditions: route oral
# [11] = system: Mus musculus; experiment: Ability to reverse electroconvulsive shock (ECS) induced amnesia in mice, at a dose of 0.6 mg/Kg administered perorally
# [12] = system: Mus musculus; experiment: Ability to reverse electroconvulsive shock (ECS) induced amnesia in mice, at a dose of 0.31 mg/Kg administered perorally
# [13] = system: Mus musculus; experiment: Ability to reverse electroconvulsive shock (ECS) induced amnesia in mice, at a dose of 320 mg/Kg administered perorally
# [14] = system: Mus musculus; experiment: Ability to reverse electroconvulsive shock (ECS) induced amnesia in mice, at a dose of 40 mg/Kg administered perorally
# [15] = system: Mus musculus; experiment: Ability to reverse electroconvulsive shock (ECS) induced amnesia in mice, at a dose of 0.63 mg/Kg administered perorally
# [16] = system: Mus musculus; experiment: Ability to reverse electroconvulsive shock (ECS) induced amnesia in mice, at a dose of 160 mg/Kg administered perorally
# [17] = system: Mus musculus; experiment: Ability to reverse electroconvulsive shock (ECS) induced amnesia in mice, at a dose of 1.0 mg/Kg administered perorally(Exp-2)
# [18] = system: Mus musculus; experiment: Ability to reverse electroconvulsive shock (ECS) induced amnesia in mice, at a dose of 1.0 mg/Kg administered perorally(Exp-1)
# [19] = system: Mus musculus; experiment: Ability to reverse electroconvulsive shock (ECS) induced amnesia in mice, at a dose of 100 mg/Kg administered perorally(Exp-2)
# [20] = system: Mus musculus; experiment: Ability to reverse electroconvulsive shock (ECS) induced amnesia in mice, at a dose of 10 mg/Kg administered perorally(Exp-2)
# [21] = system: Mus musculus; experiment: Ability to reverse electroconvulsive shock (ECS) induced amnesia in mice, at a dose of 100 mg/Kg administered perorally(Exp-1)
# [22] = system: Mus musculus; experiment: Ability to reverse electroconvulsive shock (ECS) induced amnesia in mice, at a dose of 10 mg/Kg administered perorally(Exp-1)
SMILES,Reversal [1] [%],Reversal [2] [%],Reversal [3] [%],Reversal [4] [%],Reversal [5] [%],Reversal [6] [%],other results
O=C(CCC1CCC(=O)N1)NCc1ccccc1 (stereo unspecified),0,62,50,,,,
CC(OC(=O)CCC1CCC(=O)N1)c1ccccc1 (stereo unspecified),,,,13,16,60,
O=C1CCC(CCC(=O)NC23C[C@H]4C[C@@H](C2)C[C@@H](C3)C4)N1 (stereo partly specified),,,,57,57,40,
O=C1CCC2SCC(=O)N12 (stereo unspecified),,,,31,0,0,
O=C(O)CCCC1CCCC(=O)N1 (stereo unspecified),67,100,0,,,,
CC12CCC(=O)N1C(=O)CC2,31,77,85,,,,
COC(=O)CCC1CCC(=O)N1 (stereo unspecified),75,100,75,,,,
O=C1CCCCC2CCC(=O)N12 (stereo unspecified),14,9,36,,,,
CCOC(=O)CCC1CCC(=O)N1 (stereo unspecified),10,0,27,,,,
O=C(O)CCC1CCCC(=O)N1 (stereo unspecified),86,70,8,67,,,Reversal [7]: 60%; Reversal [8]: 56%
CC1CC2CCC(=O)N2C1=O (stereo unspecified),50,0,30,,,,Reversal [7]: 50%; Reversal [8]: 20%
CC1CC2CC(C)C(=O)N2C1=O (stereo unspecified),0,20,20,,,,
CC(C)N(CCNC(=O)CCC1CCC(=O)N1)C(C)C (stereo unspecified),17,33,17,,,,
O=C1CCC(CCC(=O)OCc2ccc(Cl)cc2)N1 (stereo unspecified),,,,0,42,25,
O=C(CCC1CCC(=O)N1)NCCc1ccc(O)cc1 (stereo unspecified),,,,20,0,0,
CCOC(=O)CCSC1CCC(=O)N1 (stereo unspecified),,,,,44,,Reversal [9]: 49%; Reversal [10]: 66%
O=C1CCC(/C=C/C(=O)OCc2ccccc2)N1 (stereo unspecified),,,,,17,,Reversal [9]: 0%; Reversal [10]: 31%
O=C1CCC2CCC(O)N12 (stereo unspecified),,,,,17,,Reversal [9]: 19%; Reversal [10]: 27%

SMILES,Reversal [1] [%],Reversal [2] [%],Reversal [3] [%],Reversal [4] [%],Reversal [5] [%],Reversal [6] [%],other results
O=C(O)CCC1CCCCC(=O)N1 (stereo unspecified),,,,0,67,38,
O=C(CCC1CCC(=O)N1)Nc1ccncc1 (stereo unspecified),,,,64,53,59,
COC(=O)CCSC1CCC(=O)N1 (stereo unspecified),,,,,87,,Reversal [9]: 53%; Reversal [10]: 25%
Cc1cccc(C)c1NC(=O)CCC1CCC(=O)N1 (stereo unspecified),,,,49,50,56,
O=C(O)CCC1CCC(=O)N1 (stereo unspecified),89,100,67,,,,Reversal [11]: 58%; Reversal [7]: 91%; Reversal [8]: 83%
O=C1CCCC2CCCC(=O)N12,33,44,55,,,,
O=C1CCC(CCCC(=O)OCc2ccccc2)N1 (stereo unspecified),,,,70,43,24,
O=C1CCC2CCC(=O)N12 [ROLZIRACETAM],69,31,63,,,,Reversal [12]: 19%; Reversal [7]: 25%; Reversal [13]: 85%; Reversal [14]: 92%; Reversal [15]: 73%; Reversal [8]: 27%; Reversal [16]: 62%
O=C1CCC(CCC(=O)OCc2cccc(Cl)c2)N1 (stereo unspecified),,,,100,90,30,
O=C1CCC(CCC(=O)OCc2ccccc2)N1 (stereo unspecified),64,64,71,,,,Reversal [11]: 44%; Reversal [7]: 67%; Reversal [8]: 56%
O=C1CCCC2CCC(=O)N12 (stereo unspecified),29,50,64,,,,Reversal [7]: 56%; Reversal [8]: 18%
O=C1CCC(CCC(=O)OCc2ccccc2Cl)N1 (stereo unspecified),,,,,,,Reversal [17]: 15%; Reversal [18]: 30%; Reversal [19]: 31%; Reversal [20]: 85%; Reversal [21]: 70%; Reversal [22]: 80%
CC(C)OC(=O)CCC1CCC(=O)N1 (stereo unspecified),,42,,42,16,,
O=C(O)CC1CCC(=O)N1 (stereo unspecified),,,,2,42,0,
NC(=O)CCC1CCC(=O)N1 (stereo unspecified),,,,64,64,33,
O=C(O)CCCC1CCC(=O)N1 (stereo unspecified),,,,34,100,50,
O=C1CCSC2CCC(=O)N12 (stereo unspecified),,,,19,55,51,
O=C(O)CSC1CCC(=O)N1 (stereo unspecified),,,,,31,,Reversal [9]: 64%; Reversal [10]: 21%
